Measured values: PubChem BioAssay AID248 (DTP/NCI, 2004)
Several values for one entry are separate records, joined by “and”; a condition that tells them apart may be missing. Identical values can stand only once. Toxic doses and inconclusive results are not listed. Cut-off read from the data, not from the text of the source: active = T/C of 150% or more; inactive = T/C below 125%.

Tested on: L1210 leukemia ip in BDF1 mice, survival T/C
Assay: NCI In Vivo Anticancer Drug Screen. Data for tumor model L1210 Leukemia (intraperitoneal) in B6D2F1 (BDF1) mice
Conditions: endpoint: mean survival time, higher = longer survival
How it was run: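 Each compound was tested against a transplantable tumor grown in mice. The endpoint was survival, with treated animals benchmarked against vehicle controls as a simple ratio.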

[1] = dose: 12.5 mg/kg/injection, schedule: Q01DX009 (ip), vehicle: Klucel (hydroxypropylcellulose) (HPC)
[2] = dose: 25.0 mg/kg/injection, schedule: Q01DX009 (ip), vehicle: Klucel (hydroxypropylcellulose) (HPC)
[3] = dose: 50.0 mg/kg/injection, schedule: Q01DX009 (ip), vehicle: Klucel (hydroxypropylcellulose) (HPC)
[4] = dose: 100.0 mg/kg/injection, schedule: Q04DX002 (ip), vehicle: Klucel (hydroxypropylcellulose) (HPC)
[5] = dose: 200.0 mg/kg/injection, schedule: Q04DX002 (ip), vehicle: Klucel (hydroxypropylcellulose) (HPC)
[6] = dose: 400.0 mg/kg/injection, schedule: Q04DX002 (ip), vehicle: Klucel (hydroxypropylcellulose) (HPC)
[7] = dose: 100.0 mg/kg/injection, schedule: Q04DX003 (ip), vehicle: Klucel (hydroxypropylcellulose) (HPC)
[8] = dose: 200.0 mg/kg/injection, schedule: Q04DX003 (ip), vehicle: Klucel (hydroxypropylcellulose) (HPC)
[9] = dose: 400.0 mg/kg/injection, schedule: Q04DX003 (ip), vehicle: Klucel (hydroxypropylcellulose) (HPC)
[10] = dose: 100.0 mg/kg/injection, schedule: Q01DX009 (ip), vehicle: saline with Tween-80
[11] = dose: 100.0 mg/kg/injection, schedule: Q04DX003 (ip), vehicle: saline with Tween-80
[12] = dose: 200.0 mg/kg/injection, schedule: Q01DX009 (ip), vehicle: saline with Tween-80
[13] = dose: 200.0 mg/kg/injection, schedule: Q04DX003 (ip), vehicle: saline with Tween-80
[14] = dose: 400.0 mg/kg/injection, schedule: Q01DX009 (ip), vehicle: saline with Tween-80
[15] = dose: 400.0 mg/kg/injection, schedule: Q04DX003 (ip), vehicle: saline with Tween-80
[16] = dose: 100.0 mg/kg/injection, schedule: Q01DX001 (ip), vehicle: saline
[17] = dose: 200.0 mg/kg/injection, schedule: Q01DX001 (ip), vehicle: saline
[18] = dose: 400.0 mg/kg/injection, schedule: Q01DX001 (ip), vehicle: saline
[19] = dose: 100.0 mg/kg/injection, schedule: Q04DX003 (ip), vehicle: saline
[20] = dose: 200.0 mg/kg/injection, schedule: Q04DX003 (ip), vehicle: saline
[21] = dose: 400.0 mg/kg/injection, schedule: Q04DX003 (ip), vehicle: saline

Measured: T/C

COc1ccc(OC)c(/C=C/[N+](=O)[O-])c1
inactive: dose: 6.25 mg/kg/injection, schedule: Q01DX009 (ip), vehicle: Klucel (hydroxypropylcellulose) (HPC) 105 % of control | [1] 102 % of control | [2] 107 % of control | [3] 105 % of control | dose: 100.0 mg/kg/injection, schedule: Q04DX003 (ip), vehicle: gum acacia 97 % of control

CC(=O)CC(=O)C(F)(F)F.CC(=O)CC(=O)C(F)(F)F.CC(=O)CC(=O)C(F)(F)F.CC(=O)CC(=O)C(F)(F)F.[Hf]
inactive: [4] 104 % of control | [5] 93 % of control | [6] 96 % of control

O=C(CC(c1ccccc1)c1ccccc1)NS(=O)(=O)c1ccccc1
inactive: [7] 94 % of control | [8] 97 % of control | [9] 97 % of control

Cc1ccc(C2(O)CC3CCC2(c2ccc(C)cc2)C3)cc1 (centres undefined)
inactive: dose: 50.0 mg/kg/injection, schedule: Q01DX001 (ip), vehicle: carboxymethylcellulose (CMC) 95 % of control | dose: 100.0 mg/kg/injection, schedule: Q01DX001 (ip), vehicle: carboxymethylcellulose (CMC) 101 % of control | dose: 200.0 mg/kg/injection, schedule: Q01DX001 (ip), vehicle: carboxymethylcellulose (CMC) 98 % of control | dose: 400.0 mg/kg/injection, schedule: Q01DX001 (ip), vehicle: carboxymethylcellulose (CMC) 98 % of control

CCN(CC)CCCC(C)Nc1cc(N)nc2nc(-c3cc(OC)c(OC)c(OC)c3)cnc12 (centres undefined) (tested in a mixture with another compound)
inactive: dose: 75.0 mg/kg/injection, schedule: Q01DX001 (ip), vehicle: saline 87 % of control

CCCC(C)C(C(=O)O)c1ccccc1 (centres undefined)
inactive: [10] 102 % of control | [11] 117 % of control | [12] 104 % of control | [13] 100 % of control | [14] 100 % of control | [15] 99 % of control

Nc1ccc(N=Nc2ccccc2Cl)c(N)n1
inactive: dose: 50.0 mg/kg/injection, schedule: Q01DX001 (ip), vehicle: other 103 % of control | dose: 100.0 mg/kg/injection, schedule: Q01DX001 (ip), vehicle: other 100 % of control | dose: 200.0 mg/kg/injection, schedule: Q01DX001 (ip), vehicle: other 94 % of control | dose: 400.0 mg/kg/injection, schedule: Q01DX001 (ip), vehicle: other 100 % of control

OCCOc1nc(Cl)nc(Cl)c1Cl (tested in a mixture with another compound)
inactive: [1] 110 % of control | [2] 96 % of control | [3] 100 % of control and 91 % of control

N#Cc1ccc(CCc2ccc(Cl)cc2)cc1
inactive: dose: 50.0 mg/kg/injection, schedule: Q01DX001 (ip), vehicle: saline 94 % of control | [16] 95 % of control | [17] 101 % of control | [18] 92 % of control

COC(=O)CCCC(=O)c1[nH]c2ccccc2c1CC(=O)NCc1ccccc1
inactive: dose: 75.0 mg/kg/injection, schedule: Q01DX001 (ip), vehicle: alcohol 97 % of control | dose: 150.0 mg/kg/injection, schedule: Q01DX001 (ip), vehicle: alcohol 93 % of control | dose: 300.0 mg/kg/injection, schedule: Q01DX001 (ip), vehicle: alcohol 92 % of control

O=C(/C=C/c1ccccc1)OCc1ccccc1CN1CCCCC1
inactive: [4] 104 % of control | [5] 96 % of control | [6] 86 % of control

COc1ccccc1C(=O)N/N=C/c1cccc2ccccc12
inactive: [10] 114 % of control | [11] 103 % of control | [12] 105 % of control | [13] 96 % of control | [14] 107 % of control | [15] 94 % of control

CCN(CC)CCSC(=O)C(O)(c1ccccc1)C1CCCCC1 (centres undefined)
inactive: dose: 75.0 mg/kg/injection, schedule: Q01DX001 (ip), vehicle: other 100 % of control

Cc1ccccc1NC(=O)Oc1ccc(C2CCCCC2)cc1
inactive: [4] 103 % of control | [5] 91 % of control | [6] 100 % of control

OCC1OC(Sc2ccccc2)C(O)C(O)C1O (centres undefined)
inactive: [7] 111 % of control | [8] 105 % of control | [9] 111 % of control

COc1ccc(/C=C2\CN(CCCC(=O)O)C(=O)C2=O)cc1
inactive: [16] 103 % of control | [19] 100 % of control | [17] 98 % of control | [20] 100 % of control | [18] 100 % of control | [21] 100 % of control

FC(F)(F)COP1(OCC(F)(F)F)=NP(OCC(F)(F)F)(OCC(F)(F)F)=NP(c2ccccc2)(c2ccccc2)=N1
inactive: dose: 25.0 mg/kg/injection, schedule: Q01DX009 (ip), vehicle: saline 93 % of control | dose: 50.0 mg/kg/injection, schedule: Q01DX009 (ip), vehicle: saline 96 % of control | dose: 100.0 mg/kg/injection, schedule: Q01DX009 (ip), vehicle: saline 86 % of control

O=C1c2cc(Cl)ccc2-c2c1cc(Cl)cc2[N+](=O)[O-]
inactive: [7] 100 % of control | [8] 104 % of control | [9] 98 % of control

Cc1ccc(Cl)c(NC(=O)Nc2ccccc2F)c1
inactive: dose: 100.0 mg/kg/injection, schedule: Q01DX009 (ip), vehicle: Klucel (hydroxypropylcellulose) (HPC) 97 % of control | dose: 200.0 mg/kg/injection, schedule: Q01DX009 (ip), vehicle: Klucel (hydroxypropylcellulose) (HPC) 100 % of control | dose: 400.0 mg/kg/injection, schedule: Q01DX009 (ip), vehicle: Klucel (hydroxypropylcellulose) (HPC) 103 % of control

O=S(=O)(CC(I)c1ccccc1)c1ccccc1 (centres undefined)
inactive: [19] 105 % of control | [20] 94 % of control | [21] 92 % of control

Cc1cc2c(cc1C)[n+]([O-])c1c(=O)[nH]c(=O)nc-1n2CC(O)C(O)C(O)CO (centres undefined)
inactive: dose: 100.0 mg/kg/injection, schedule: Q04DX002 (ip), vehicle: saline with Tween-80 98 % of control | dose: 200.0 mg/kg/injection, schedule: Q04DX002 (ip), vehicle: saline with Tween-80 95 % of control

c1ccc(CCCCCCCCCCc2ccccc2)cc1
inactive: dose: 100.0 mg/kg/injection, schedule: Q01DX001 (ip), vehicle: saline with Tween-80 91 % of control | dose: 200.0 mg/kg/injection, schedule: Q01DX001 (ip), vehicle: saline with Tween-80 95 % of control | dose: 400.0 mg/kg/injection, schedule: Q01DX001 (ip), vehicle: saline with Tween-80 98 % of control

CCC(CCNC(=O)c1ccccc1)(CCNC(=O)c1ccccc1)[N+](=O)[O-]
inactive: [16] 95 % of control | [17] 106 % of control | [18] 92 % of control

COc1cc2c(c(OC)c1OC)-c1ccc(OC)c(=O)cc1[C@@H](NC(=O)CCl)CC2
inactive: dose: 0.06 mg/kg/injection, schedule: Q01DX009 (ip), vehicle: Klucel (hydroxypropylcellulose) (HPC) 108 % of control | dose: 0.12 mg/kg/injection, schedule: Q01DX009 (ip), vehicle: Klucel (hydroxypropylcellulose) (HPC) 110 % of control | dose: 0.14 mg/kg/injection, schedule: Q01DX009 (ip), vehicle: saline 115 % of control | dose: 0.18 mg/kg/injection, schedule: Q04DX003 (ip), vehicle: Klucel (hydroxypropylcellulose) (HPC) 102 % of control | dose: 0.23 mg/kg/injection, schedule: Q01DX009 (ip), vehicle: saline 121 % of control | dose: 0.25 mg/kg/injection, schedule: Q01DX009 (ip), vehicle: Klucel (hydroxypropylcellulose) (HPC) 118 % of control and 124 % of control | dose: 0.37 mg/kg/injection, schedule: Q04DX003 (ip), vehicle: Klucel (hydroxypropylcellulose) (HPC) 119 % of control | dose: 0.75 mg/kg/injection, schedule: Q04DX003 (ip), vehicle: Klucel (hydroxypropylcellulose) (HPC) 120 % of control

COc1ccc(CC(Cc2ccc(OC)c(OC)c2)NC=O)cc1OC
inactive: [10] 95 % of control | [12] 97 % of control | [14] 100 % of control
